{
  "source": "paper PMC4982760",
  "about": "“Small-molecule inhibitors identify the RAD52-ssDNA interaction as critical for recovery from replication stress and for survival of BRCA2 deficient cells” (eLife, 2016)",
  "key": {"[1]": {"test_system": "MUS81", "assay": "Anaphase bridges in aphidicolin-treated cells (MUS81 activity)", "format": "cell-based, human", "details": "GM01604, 0.2 µM aphidicolin 24h, increasing concentration of compound", "protocol": "Figure 5. Inhibiting the RAD52-ssDNA interaction interferes with RAD52/MUS81-mediated DSB formation essential for replication fork recovery in check point deficient cells. (a) Representative images showing fields of cells from the comet assay for untreated, as well as from UCN01 (300 nM) and HU (2 mM) treated cells in the presence and absence of ‘1’, ‘6’, and siRAD52. (b) ‘1’ and ‘6’ at 1 or 25 μM recapitulate RAD52 depletion. GM1604 cells, transfected or not with siRNAs against RAD52, were treated as indicated, in the presence or absence of the inhibitor. At the end of treatment, DSBs were analyzed by neutral comet assay. Data are presented as the mean ± SEM from two independent experiments; p values are shown in the graph when differences are statistically significant. (c–d) Inhibitors ‘1’ and ‘6’, respectively decrease the mean tail moment following HU treatment with IC50 values ranging from mid nanomolar to low micromolar. Cells were treated as in (b). Data are from three independent experiments. DOI: http://dx.doi.org/10.7554/eLife.14740.012 Figure 5—figure supplement 1. […] (a) GM01604 wild-type fibroblasts were transfected with CTRL or MUS81 siRNA. Forty eight hours after transfection the fibroblasts were lysed and analysed by WB with the indicated antibodies. […] (c) The presence of anaphase bridges, as shown in the representative images, was scored in DAPI-stained cells. […]"}, "[2]": {"target": "T1, RAD52-dsDNA interaction (Homo sapiens, UniProt P43351)", "T1 construct": "made in house", "T1 sequence (P43351 1-418)": "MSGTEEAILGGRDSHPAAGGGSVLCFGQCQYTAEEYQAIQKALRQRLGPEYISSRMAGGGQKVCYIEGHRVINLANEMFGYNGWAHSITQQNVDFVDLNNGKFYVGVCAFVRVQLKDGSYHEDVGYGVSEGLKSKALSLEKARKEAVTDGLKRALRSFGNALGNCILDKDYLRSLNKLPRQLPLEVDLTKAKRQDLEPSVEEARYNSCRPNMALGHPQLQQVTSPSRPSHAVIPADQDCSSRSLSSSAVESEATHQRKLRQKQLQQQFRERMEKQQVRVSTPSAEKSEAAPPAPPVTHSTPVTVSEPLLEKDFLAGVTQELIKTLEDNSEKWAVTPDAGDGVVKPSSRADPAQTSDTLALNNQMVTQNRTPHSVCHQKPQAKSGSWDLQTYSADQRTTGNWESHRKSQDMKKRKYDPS", "assay": "FRET-based RAD52-dsDNA binding assay", "details": "1 nM dsDNA, 10 nM RAD52"}, "[3]": {"target": "T2, RAD52 (Homo sapiens, UniProt P43351)", "T2 construct": "made in house", "T2 sequence (P43351 1-418)": "T1 sequence (P43351 1-418)", "assay": "WaterLOGSY NMR binding to RAD52", "details": "20-40 μM compound, 3.3 μM RAD52", "description": "(§1) To confirm that the selected compounds bind RAD52, we employed water-ligand observation with gradient spectroscopy (WaterLOGSY), an NMR technique, which is based on transfer of magnetization from bulk water to the protein-bound compound of interest ([Dalvit et al., 2001], [2000]). In WaterLOGSY spectrum, if a compound binds to a protein, the compound will receive negative nuclear Overhauser effects (NOEs) due to the slow tumbling of the protein-compound complex, leading to a positive WaterLOGSY peak. […] Similarly, the binding of ‘6’to RAD52 is evident from the positive WaterLOGSY peaks that are clearly detected for this compound (Figure 3a).\n(§2) Compound binding to RAD52 and RPA proteins was analyzed using water-ligand observation with gradient spectroscopy (WaterLOGSY) NMR experiments ([Dalvit et al., 2001], [2000]). The WaterLOGSY spectra of compounds in the presence of RAD52 or RPA were acquired using a water NOE mixing time of 1 s and a T2 relaxation filter of 50 ms just before data acquisition to suppress the broad signals derived from protein. The protein buffer used in the experiments contains 10 mM Tris-d11, 75 mM KCl, 0.25 mM EDTA, pH 7.5, and 10% D20. All NMR data were acquired on a Bruker Avance II 800 MHz NMR spectrometer equipped with a sensitive cryoprobe and recorded at 25°C. The ^1H chemical shifts were referenced to 2,2-dimethyl-2-silapentane-5-sulfonate (DSS). NMR spectra were processed using NMR Pipe ([Delaglio et al., 1995]) and analysed using NMR View ([Johnson and Blevins, 1994])."}, "[4]": {"target": "T3, RPA (Homo sapiens, UniProt P15927+P27694+P35244)", "T3 construct": "made in house", "T3 sequence (P27694 whole entry)": "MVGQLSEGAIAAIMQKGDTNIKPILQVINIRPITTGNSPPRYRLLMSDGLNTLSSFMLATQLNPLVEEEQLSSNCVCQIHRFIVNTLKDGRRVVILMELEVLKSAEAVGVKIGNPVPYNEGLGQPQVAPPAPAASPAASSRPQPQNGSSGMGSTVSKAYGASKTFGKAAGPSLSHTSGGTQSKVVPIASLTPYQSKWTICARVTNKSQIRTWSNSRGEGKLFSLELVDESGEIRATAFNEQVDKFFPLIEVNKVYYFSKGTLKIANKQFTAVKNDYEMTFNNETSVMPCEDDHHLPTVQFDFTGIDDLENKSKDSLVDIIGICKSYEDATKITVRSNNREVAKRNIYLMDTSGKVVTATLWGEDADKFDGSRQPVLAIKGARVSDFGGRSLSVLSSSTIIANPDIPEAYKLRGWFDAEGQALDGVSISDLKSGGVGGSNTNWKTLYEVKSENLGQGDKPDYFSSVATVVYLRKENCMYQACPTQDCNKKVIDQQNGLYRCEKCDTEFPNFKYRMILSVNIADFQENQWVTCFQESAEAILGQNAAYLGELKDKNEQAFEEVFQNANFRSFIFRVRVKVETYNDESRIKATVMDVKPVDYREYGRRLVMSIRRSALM", "T3 sequence (P15927 whole entry)": "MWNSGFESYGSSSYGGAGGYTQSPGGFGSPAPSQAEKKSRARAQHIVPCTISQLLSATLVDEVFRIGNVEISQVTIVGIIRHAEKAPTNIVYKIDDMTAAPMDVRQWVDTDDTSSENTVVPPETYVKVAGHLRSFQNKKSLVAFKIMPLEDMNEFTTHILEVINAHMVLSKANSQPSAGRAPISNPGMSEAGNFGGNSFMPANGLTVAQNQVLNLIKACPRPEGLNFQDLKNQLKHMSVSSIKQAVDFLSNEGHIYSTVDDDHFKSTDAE", "T3 sequence (P35244 whole entry)": "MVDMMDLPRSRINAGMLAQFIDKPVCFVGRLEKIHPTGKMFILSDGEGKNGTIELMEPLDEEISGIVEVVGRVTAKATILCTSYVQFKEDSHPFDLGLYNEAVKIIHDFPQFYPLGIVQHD", "assay": "WaterLOGSY NMR binding to RPA", "details": "20-40 μM compound, 3.3 μM RPA", "description": "as §1, §2"}},
  "data": [
    {"smiles": "Oc1cc(O)c2c(c1)O[C@H](c1cc(O)c(O)c(O)c1)[C@H](O)C2", "note": "[Compound 1, (−)−Epigallocatechin]", "values": [
      {"measurement": "effect on MUS81 activity (anaphase bridges)", "setting": "[1]", "value": "does not affect MUS81 activity"},
      {"measurement": "effect on the RAD52-dsDNA interaction", "setting": "[2]", "value": "had no effect on the RAD52-dsDNA interaction"},
      {"measurement": "binding to RAD52 (WaterLOGSY)", "setting": "[3]", "value": "physically interact with RAD52 protein"},
      {"measurement": "binding to RPA (WaterLOGSY)", "setting": "[4]", "value": "neither binds to RPA"}
    ]}
  ]
}
